Test results as given in patent US6274622A, “Method of treating diabetic ophthalmopathy” (priority 1999, dated 2001).

How the values were obtained:
[1] = test system: humans; experiment: administration to humans, tolerability; design: species or system human; conditions: in vivo
[2] = in vivo; conditions: dog, iv
[3] = in vivo; conditions: mouse, iv
[4] = test system: diabetic retinopathy; conditions: humans, mainly in the 1980s; cited from earlier work
[5] = accepted value; cited from earlier work

O=S(=O)([O-])CCSSCCS(=O)(=O)[O-].[Na+].[Na+]
dose administered with no adverse effects [1]: exceeding 15 g/m^2
NOAEL [2]: > 3750 mg/kg
NOAEL [3]: > 3750 mg/kg

O=C1NC(=O)[C@@]2(CCOc3ccc(F)cc32)N1 [sorbinil]
efficacy in slowing progress of diabetic retinopathy and other diabetic complications [4]: some efficacy
toxicity / tolerability in patients [4]: highly toxic

[Cl-].[Na+] [common table salt]
oral LD50 [5]: 3750 mg/kg
